Data reported in patent US6852710B2, “2-alkoxyestradiol analogs with antiproliferative and antimitotic activity” (Southwest Foundation for Biomedical Research, priority 2001, dated 2005).

How the values were obtained:
[1] = test system: NCI/ADR cells; experiment: SRB assay, inhibition of proliferation, multidrug resistant line; format: cell-based, human; details: for IC50: Homo sapiens, NCI/ADR-RES, NCI/ADR multidrug resistant, 48 hours, n=3 mean±SD; for NCI-ADR/MDA-MB-435 resistance factor: IC50 in NCI/ADR divided by IC50 in MDA-MB-435
Excerpt: The SK-OV-3 cell line was derived from ovarian carcinoma, the MDA-MB-435 and NCI/ADR from breast adenocarcinoma, PC3 and DU 145 from prostate carcinoma and HeLa from cervical carcinoma. The SK-OV-3, HeLa, PC3, and DU 145 and cell lines were obtained from the American Type Culture Collection, 10801 University Blvd., Manassas, Va. 20110-2209. The MDA-MB-435 cell line was obtained from the Lombardi Cancer Center of Georgetown University School of Medicine and the NCI/ADR cell line was obtained from the National Cancer Institute, Fairview Center, Suite 204, 1003 West 7th Street, Frederick, Md. 21701-8531.
(§1) Cells were plated into 96 well plates and allowed to grow and attach for 18-24 hours and then the drugs or vehicle controls were added to the wells. Each data point represents the mean of three experiments, each of which consisted of three replicates within an experiment. The cells were incubated with the drugs for 48 hours and then the cellular protein was fixed and quantified using the sulforhodamine B (SRB) assay. The absorbance of the dye is linear with respect to both cell protein and cell number (Skehan, P.; Storeng, R.; Scudiero, D., Monks; A., McMahon, J.; Vistica, D., Warren, J. T.; Bokesch, H., Kenney, S.; and Boyd, M. R., “New colorimetric cytotoxicity assay for anticancer-drug screening”, J. Natl. Cancer Inst, 82, 1107-1112 (1990)). The effects of the drugs were compared to vehicle controls and the data plotted as percent of control vs. log of drug concentration.
(§2) The IC50 is defined as the drug concentration required to inhibit cell proliferation 50% and is calculated from the linear portion of the log concentration response curve.
(§3) The IC50 values for inhibition of proliferation were calculated from the log dose response curve (n=3, mean±SD).
The effects of the analogs on a multi-drug resistant cell line were also studied. The NCI/ADR cell line is resistant to many chemotherapeutic agents by virtue of its high expression of the drug efflux pump P-glycoprotein. The NCI/ADR cell line was obtained from the National Cancer Institute, Fairview Center, Suite 204, 1003 West 7th Street, Frederick, Md. 21701-8531.
The IC50 values for inhibition of proliferation were calculated from the dose-response curves. The values represent the mean of 3 experiments ±SD. Resistance factors were calculated by dividing the IC50 of the resistant cell line, NCI/ADR, by the IC50 in a drug sensitive cell line, MDA-MB-435.

[2] = test system: HeLa cells; experiment: SRB assay, inhibition of proliferation; format: cell-based; details: Homo sapiens, 48 hours, n=3 mean±SD
Procedure: (§4) The 4 analogs of 2-ME2 set forth in Table 1 were tested for antiproliferative activity against 6 human tumor cell lines. The SK-OV-3 cell line was derived from ovarian carcinoma, the MDA-MB-435 and NCI/ADR from breast adenocarcinoma, PC3 and DU 145 from prostate carcinoma and HeLa from cervical carcinoma. The SK-OV-3, HeLa, PC3, and DU 145 and cell lines were obtained from the American Type Culture Collection, 10801 University Blvd., Manassas, Va. 20110-2209. The MDA-MB-435 cell line was obtained from the Lombardi Cancer Center of Georgetown University School of Medicine and the NCI/ADR cell line was obtained from the National Cancer Institute, Fairview Center, Suite 204, 1003 West 7th Street, Frederick, Md. 21701-8531.
as §1, §2, §3

[3] = test system: PC3 cells; experiment: SRB assay, inhibition of proliferation; format: cell-based; details: Homo sapiens, PC-3; PC3, 48 hours, n=3 mean±SD
Procedure: as §4, §1, §2, §3

[4] = test system: SK-OV-3 cells; experiment: SRB assay, inhibition of proliferation; format: cell-based; details: Homo sapiens; SK-OV-3, 48 hours, n=3 mean±SD
Procedure: as §4, §1, §2, §3

[5] = test system: DU 145 cells; experiment: SRB assay, inhibition of proliferation; format: cell-based, human; details: for IC50: Homo sapiens, DU 145, 48 hours, n=3 mean±SD; for potency relative to 2-ME2: DU 145 cell line
Procedure: as §4, §1, §2, §3

[6] = test system: MDA-MB-435 cells; experiment: SRB assay, inhibition of proliferation; format: cell-based, human; details: for IC50: Homo sapiens, MDA-MB-435, 48 hours, n=3 mean±SD
Procedure: as §4, §1, §2, §3

[7] = test system: Human Umbilical Vein Endothelial Cells (HUVEC); experiment: HUVEC proliferation (SRB assay); format: cell-based; details: for IC50: Homo sapiens, HUVEC, SRB assay; for potency relative to 2-ME2, HUVEC proliferation: in words
Excerpt: FIG. 2 illustrates the effects of compounds on Human Umbilical Vein Endothelial Cells (HUVEC) proliferation. The SRB assay was used to construct the dose response curves of the agents in HUVEC cells. n=3±SD;
Two in vitro assays were used to detect the potential for antiangiogenic activity of the analogs. One assay tested the ability of the analogs to inhibit the cellular proliferation of endothelial cells as shown below (Table 4). The ability of the analogs to inhibit the proliferation of endothelial cells was tested and compared to the effects of 2-ME2. Drugs that have antiangiogenic activity inhibit the proliferation of endothelial cells.

[8] = test system: Human Umbilical Vein Endothelial Cells (HUVEC); experiment: HUVEC invasion, Matrigel invasion chambers; format: cell-based; details: for IC50: Homo sapiens, HUVEC, Matrigel, 24 hours
Excerpt: FIG. 3 illustrates the effects of compounds on Human Umbilical Vein Endothelial Cells (HUVEC) cell invasion. Becton-Dickinson (BD) Biocoat® Matrigel® invasion chambers were used to construct dose response curves of the compounds for invasion of HUVECs. n=3±SD;
A second assay was also used to evaluate the analogs for potential antiangiogenic activity. The complex process of endothelial cell invasion and migration are key events during angiogenesis. The ability of compounds to inhibit the invasion and migration of endothelial cells through a biological membrane matrix was evaluated. Specifically, the ability of the 2-ME2 analogs, 15-dehydro-2-ME2, 14-dehydro-2-ME2 and 2-ME2-15α,16α to inhibit the invasion and migration of human umbilical vein endothelial cells (HUVEC) through Matrigel® basement membrane material and a PET membrane with 8 μm pores was evaluated. HUVECs were obtained from BioWhittaker and were used during passages of 2 to 6. BD Biocoat® Matrigel® invasion chambers were used for the assays. These modified Boyden chambers have a PET membrane with 8 μm pores that have been coated with Matrigel®. The membrane separates the upper chamber from the lower chamber. HUVECs were plated into the top chamber in media containing 0.1% bovine serum albumin with either a test compound or vehicle and allowed to invade and migrate through pores for 24 hours. The media in the lower chamber contained the chemoattractant, 10% fetal bovine, serum. Following the incubation period the cells on the top of the membrane were removed with a cotton swab and the cells that had migrated through the pores to the lower surface of the membrane were stained with hematoxylin and eosin and counted microscopically. Experiments were conducted in duplicate and the numbers of cells that migrated were counted in 10 microscope fields per transwell chamber. The data are expressed as percent of vehicle control invasion. Dose response curves were generated and are shown in FIG. 3 and the IC50s for inhibition of HUVEC invasion were determined and are presented above in Table 4. All of the 2-ME2 analogs inhibited HUVEC invasion.

[9] = test system: MDA-MB-435 breast cancer xenograft; experiment: MDA-MB-435 breast cancer xenograft model; format: in vivo, mice; details: for tumor growth delay: intraperitoneally daily for 30 days, time for median to reach tumor burden of 1500 mg vs control; for antitumor effect compared with 2-ME2: tumor burden versus time
Procedure: FIG. 4 illustrates the effects of compounds in an MDA-MB-435 breast cancer xenograft model. The data are the means of the groups ±SEM. Statistical significance (P<0.05) is indicated by an asterisk;
The analogs were tested for antitumor activity using an MDA-MB-435 breast cancer xenograft model. Tumor fragments of MDA-MB-435 (30 mg) were implanted subcutaneously into female athymic NCr-nu mice (SWF-1) weighing approximately 24 g. The tumor fragments were harvested from nude mice hosts. Animal weight and tumor dimensions were measured twice weekly with calipers and tumor weights estimated using 2-dimensional measurements of length and width and the formula [1×(w)^2]/2. When the tumors reached an approximate size equivalent to 175 mg (13 days after implantation) the mice were randomized to treatment or control groups and treatments were begun. The compounds were administered intraperitoneally daily for 30 days on the basis of individual animal body weights. Treatment groups contained 10 mice and the vehicle treated control group consisted of 20 mice. The mean tumor burdens were plotted for each treatment group and compared to controls. The means of the tumor burden data were analyzed for differences using a one-sided Student's t-test, with a P<0.05 considered to be significant difference. Tumor growth delay, the difference between the time for the median of each group (treatment and control) to reach a tumor burden of 1500 mg was calculated.

[10] = test system: 6 human tumor cell lines; experiment: SRB antiproliferative assay, panel of tumor cell lines; format: cell-based; details: for potency compared with 2-ME2, tumor cell lines: in words, 15-dehydro-2-ME2: MDA-MB-435, NCI/ADR, PC3, HeLa and SK-OV-3
Procedure: as §4, §1, §2

Structure (SMILES) | IC50 [1] [µM] | NCI-ADR/MDA-MB-435 resistance factor [1] | IC50 [2] [µM] | IC50 [3] [µM] | IC50 [4] [µM] | IC50 [5] [µM] | IC50 [6] [µM] | IC50 [7] [µM] | IC50 [8] [µM] | potency relative to 2-ME2, HUVEC proliferation [7] | potency relative to 2-ME2 in inhibiting HUVEC invasion [8] | tumor growth delay [9] [days] | antitumor effect compared with 2-ME2 [9] | potency compared with 2-ME2, tumor cell lines [10] | potency compared with 2-ME2 ([6]; MDA-MB-435 cell line, in words) | potency relative to 2-ME2 [5] | potency relative to 2-ME2 ([10]; 5 of the 6 cell lines tested) | days with statistically significant differences between control and treated tumors ([9]; one-sided Student's t-test, P<0.05) | NCI-ADR/MDA-MB-435 resistance factor ([1]; listed as vinblastine)
COc1cc2c(cc1O)CCC1C2CC[C@@]2(C)C1CC[C@@H]2O (stereo partly drawn) [2-ME2, 2-Methoxyestradiol, reference compound] | 0.38 ± 0.01 | 0.28 | 0.45 ± 0.04 | 2.22 ± 0.15 | 1.79 ± 0.24 | 4.26 ± 0.95 | 1.38 ± 0.1 | 0.7 ± 0.11 | 1.99 ± 0.39 | – | – | – | – | – | – | – | – | – | –
COc1cc2c(cc1O)CCC1C2CC[C@@]2(C)C1[C@H]1OC(C)(C)O[C@H]1[C@@H]2O (stereo partly drawn) [2-ME2-15α, 16α, 2-Methoxy-3,15α,16α,17β-tetrahydroxyestra-1,3,5(10)-triene 15,16-acetonide] | 4.21 ± 0.6 | 1.30 | 2.98 ± 0.24 | 5.13 ± 1.53 | 5.16 ± 0.99 | 6.78 ± 0.62 | 3.24 ± 0.35 | 11.9 ± 2.17 | 16 ± 1.98 | less potent | less potent | 11.3 | superior to 2-ME2 | generally less potent than 2-ME2 | – | – | – | – | –
COc1cc2c(cc1O)CC=C1[C@@H]2CC[C@]2(C)[C@@H](O)CC[C@@H]12 [7-dehydro-2-ME2, 2-Methoxyestra-1,3,5(10), 7-tetraen-3,17β-diol] | 2.54 ± 0.44 | 1.29 | – | – | 4.49 ± 0.18 | – | 1.97 ± 0.4 | 4.39 ± 0.37 | – | less potent | – | – | – | generally less potent than 2-ME2 | almost equipotent | – | – | – | –
COc1cc2c(cc1O)CC[C@H]1C3=CC[C@H](O)[C@@]3(C)CC[C@H]21 [14-dehydro-2-ME2, 2-Methoxyestra-1,3,5(10), 14-tetraen-3,17β-diol] | 0.056 ± 0.01 | 1.0 | 0.05 ± 0.02 | 0.35 ± 0.09 | 0.15 ± 0.07 | 1.58 ± 0.81 | 0.056 ± 0.002 | 0.049 | 0.3 ± 0.02 | more potent than 2-ME2 | more than 6 times | 10.0 | superior to 2-ME2 | – | – | 2.7 fold | 6-24 fold | – | –
COc1cc2c(cc1O)CC[C@@H]1[C@@H]2CC[C@]2(C)[C@@H](O)C=C[C@@H]12 [15-dehydro-2-ME2, 2-Methoxyestra-1,3,5(10), 15-tetraen-3,17β-diol] | 0.49 ± 0.06 | 0.57 | 0.43 ± 0.08 | 1.82 ± 0.98 | 1.37 ± 0.26 | 1.25 ± 0.32 | 0.86 ± 0.11 | 0.72 ± 0.02 | 2.07 ± 0.08 | equipotent with the parental compound | equipotent with 2-ME2 | 7.5 | superior to 2-ME2 | approximately equal in potency to 2-ME2 | – | over three times more potent | – | days 16-26 and day 36 | –
CC(=O)O[C@H]1C(=O)[C@@]2(C)[C@H]([C@H](OC(=O)c3ccccc3)[C@]3(O)C[C@H](OC(=O)[C@H](O)[C@@H](NC(=O)c4ccccc4)c4ccccc4)C(C)=C1C3(C)C)[C@]1(OC(C)=O)CO[C@@H]1C[C@@H]2O [Taxol ®, reference compound] | 4.46 ± 0.61 | 2218.91 | – | – | – | – | 0.00201 ± 0.0003 | – | – | – | – | – | – | – | – | – | – | – | –
CC[C@]1(O)C[C@@H]2CN(CCc3c([nH]c4ccccc34)[C@@](C(=O)OC)(c3cc4c(cc3OC)N(C)[C@H]3[C@@](O)(C(=O)OC)[C@H](OC(C)=O)[C@]5(CC)C=CCN6CC[C@]43[C@@H]65)C2)C1 [Vinblastine, reference compound] | 0.43 ± 0.07 | 139.61 | – | – | – | – | 0.00308 ± 9e-05 | – | – | – | – | – | – | – | – | – | – | – | 140
